Consider 16 compounds from patent US10882867B2, “Forms and compositions of a MK2 inhibitor” (Celgene CAR LLC, priority 2017, dated 2021).

Structures are written as SMILES.

Data set [1] in a line: Dynamic vapor sorption (DVS) hygroscopicity. It is filed as physicochemical. The conditions noted are these: for Hygroscopicity: DVS, 0 to 90% RH. As for the experimental part:
Hygroscopicity was determined on a Surface Measurement Systems DVS. A sample size of 5-20 mg was loaded into the DVS instrument sample pan and the sample was analyzed on a DVS automated sorption analyzer at room temperature. The relative humidity was increased from 0% to 90% RH at 10% RH step, then decreased in a similar manner to accomplish a full adsorption/desorption cycle. FIGS. 29-33 depict the DVS isotherm plots of Forms A, C, D, E, and I.

Data set [2] can be described thus: Form conversion (form transfer) experiments: slurry, compression, heating, humidity cycle. Format: physicochemical. As for the experimental part:
Form conversion experiments were performed to determine interconversion among solid forms.
The stability of Form A was further characterized by compression test and form transfer experiments (Table 6). Upon application of 2000-psi pressure for about 1 minute, the material was still Form A, with broader diffraction peaks (FIG. 42(c)).

A short description of data set [3]: DSC and TGA thermal analysis. The following applies: for endotherm observed (DSC): complex of Compound 1 with co-former, sample from primary salt/co-crystal screen; for % loss (TGA): screen sample.
Where [4] appears, read: between 0 and 90% RH, room temperature.
Setting [5] is: 0-90-0% RH cycle in DVS, 25° C.
Setting [6] is: compression, 2000 psi, RT, 1 min.
[7] abbreviates: heating in KF oven, 190° C., ~10 min.

`CCOCc1cnc(Cl)nc1Oc1ccc2c(ccc3sc4c(c32)NC[C@@H](C)NC4=O)n1` [Form I, (R)-3-((2-chloro-5-(ethoxymethyl)pyrimidin-4-yl)oxy)-10-methyl-9,10,11,12-tetrahydro-8H-[1,4]diazepino[5′,6′:4,5]thieno[3,2-f]quinolin-8-one]: the DVS water uptake entry in data set [1] (setting [4]) is recorded as “Approximately 1.5 wt %”. In addition, the “Resulting Form(s)” value in data set [2] (setting [5]) is “change to Form A”.
For the compound `O=C1O[C@H]([C@@H](O)CO)C(O)=C1O` [L-ascorbic acid], the “endotherm observed (DSC)” value in data set [3] is “endotherm observed at 88.26 °C”. The “% loss (TGA)” value in data set [3] (up to 100° C.) was 2.55% loss up to 100 °C.
For `CCOCc1cnc(Cl)nc1Oc1ccc2c(ccc3sc4c(c32)NC[C@@H](C)NC4=O)n1` [Form C, (R)-3-((2-chloro-5-(ethoxymethyl)pyrimidin-4-yl)oxy)-10-methyl-9,10,11,12-tetrahydro-8H-[1,4]diazepino[5′,6′:4,5]thieno[3,2-f]quinolin-8-one], in data set [1], the Hygroscopicity entry is reported as “hygroscopic”. Besides, the DVS water uptake result in data set [1] (setting [4]) is “approximately 4.1 wt %”; in data set [1] (between 0 and 90% RH, room temperature, listed as C) it was “DVS: ~4.1 wt % water”. Further, the “Resulting Form(s)” value in data set [2] (setting [5]) is “E + C + peaks”; in data set [2] (setting [6]), “partially convert to Form E”; in data set [2] (compression, 2000 psi, RT, 1 min, listed as C), “E + C + peaks”; in data set [2] (setting [7]), “a mixture of Form A and Form C”; in data set [2] (heating in KF oven, 190° C., ~10 min, listed as C), “A + C (shifted)”. In data set [2] (slurry in THF/water (5:95), time not given), the Resulting form entry is “convert to Form E”.
Take `CCOCc1cnc(Cl)nc1Oc1ccc2c(ccc3sc4c(c32)NC[C@@H](C)NC4=O)n1` [Form B, (R)-3-((2-chloro-5-(ethoxymethyl)pyrimidin-4-yl)oxy)-10-methyl-9,10,11,12-tetrahydro-8H-[1,4]diazepino[5′,6′:4,5]thieno[3,2-f]quinolin-8-one]: the “Resulting Form(s)” value in data set [2] (setting [6]) is recorded as “mainly Form B, with a small amount of Form A”; in data set [2] (compression, 2000 psi, RT, 1 min, listed as B), “B + A”; in data set [2] (setting [7]) it was “confirmed to be Form A”. Further, the “Form change upon storage” value in data set [2] (storage in vials) is reported as “convert to Form A”.
For `O=C(O)/C=C\C(=O)O` [maleic acid], the “endotherm observed (DSC)” value in data set [3] is “endotherm observed at 153.89 °C”. In addition, the “% loss (TGA)” value in data set [3] (up to […] C.) was 9.87% loss up to 155 °C.
`O=C(O)c1ccc2ccccc2c1O` [1-hydroxy-2-naphthoic acid (Form 2)]: the “endotherm observed (DSC)” value in data set [3] is “endotherm observed at 169.60 °C”. For the same compound, the “% loss (TGA)” value in data set [3] (up to 150° C.) was 1.86% loss up to 150 °C.
On to `O=C(O)c1ccc2ccccc2c1O` [1-hydroxy-2-naphthoic acid (Form 1)], for which the “% loss (TGA)” value in data set [3] (up to 150° C.) was 10.82% loss up to 150 °C.
For the compound `N#CS` [thiocyanic acid], the “% loss (TGA)” value in data set [3] (from 100 to 200° C.) is 6.54% loss from 100 to 200 °C; in data set [3] (up to 100° C.), 3.04% loss up to 100 °C.
As for `CS(=O)(=O)O` [methanesulfonic acid], the “endotherm observed (DSC)” value in data set [3] is “endotherm observed at 157.01 °C”. In addition, the “% loss (TGA)” value in data set [3] (up to 160° C.) is 8.28% loss up to 160 °C.
As to `CCOCc1cnc(Cl)nc1Oc1ccc2c(ccc3sc4c(c32)NC[C@@H](C)NC4=O)n1` [Form H, (R)-3-((2-chloro-5-(ethoxymethyl)pyrimidin-4-yl)oxy)-10-methyl-9,10,11,12-tetrahydro-8H-[1,4]diazepino[5′,6′:4,5]thieno[3,2-f]quinolin-8-one], the “Resulting Form(s)” value in data set [2] (slurry in THF/water (5:95), RT, 8 days) is “A + I”; in data set [2] (slurry in water, RT, 4 days), “generated Form I”.
As for `CCOCc1cnc(Cl)nc1Oc1ccc2c(ccc3sc4c(c32)NC[C@@H](C)NC4=O)n1` [Form D, (R)-3-((2-chloro-5-(ethoxymethyl)pyrimidin-4-yl)oxy)-10-methyl-9,10,11,12-tetrahydro-8H-[1,4]diazepino[5′,6′:4,5]thieno[3,2-f]quinolin-8-one], in data set [1], the Hygroscopicity entry is recorded as “slightly hygroscopic”. In addition, the DVS water uptake entry is “about 2.6 wt %” in data set [1] (setting [4]); “DVS: ~2.6 wt % water” in data set [1] (between 0 and 90% RH, room temperature, listed as D). The “Resulting Form(s)” value in data set [2] (setting [5]) is given as “No form change”; in data set [2] (setting [6]), “mainly Form D”; in data set [2] (compression, 2000 psi, RT, 1 min, listed as D), “D (+ A?)”; in data set [2] (setting [7]), “confirmed to be Form A”.
For `NCCCC[C@H](N)C(=O)O` [L-lysine], the “% loss (TGA)” value was 12.61% loss from 150 to 250 °C in data set [3] (from 150 to 250° C.) and 7.32% loss up to 150 °C in data set [3] (up to 150° C.).
For the compound `Cc1ccc(S(=O)(=O)O)cc1` [p-toluenesulfonic acid], the “% loss (TGA)” value in data set [3] (up to 130° C.) was 3.50% loss up to 130 °C.
On to `O=C(O)c1cc(O)ccc1O` [gentisic acid], for which, in data set [3], the “endotherm observed (DSC)” value was “endotherm observed at 115.17 °C”. Moreover, the “% loss (TGA)” value in data set [3] (up to 120° C.) is 1.69% loss up to 120 °C.
For the compound `CCOCc1cnc(Cl)nc1Oc1ccc2c(ccc3sc4c(c32)NC[C@@H](C)NC4=O)n1` [Form E, (R)-3-((2-chloro-5-(ethoxymethyl)pyrimidin-4-yl)oxy)-10-methyl-9,10,11,12-tetrahydro-8H-[1,4]diazepino[5′,6′:4,5]thieno[3,2-f]quinolin-8-one], the DVS water uptake entry in data set [1] (between 0 and 60% RH) is “about 2.2 wt %”; in data set [1] (setting [4]) it was 7.5 wt %; in data set [1] (between 0 and 90% RH, room temperature, listed as E), “DVS: ~7.5 wt % water”. In addition, the “Resulting Form(s)” value in data set [2] (setting [5]) is recorded as “No form change”; in data set [2] (setting [6]) it was “still Form E”; in data set [2] (setting [7]) it was “confirmed to be Form E”. Moreover, the Resulting form result in data set [2] (THF/water (5/95), long periods of equilibration) is given as “converted to Form A”; in data set [2] (slurry in acetone, temperature and time not given), “converts to Form A”.
For `O=C1NS(=O)(=O)c2ccccc21` [saccharin], in data set [3] (up to […] C.), the “% loss (TGA)” value is 3.70% loss up to 165 °C.
